According to patent US3947411A, “Novel 1-aryl-2-arylalkyl-3-or-4-[4'-(substituted-alkyl)piperazino-1']butanols- 2-or-butenes-1, and methods of manufacture thereof” (Warner-Lambert Company, priority 1972, dated 1976):
Values after ≈ are worked out from the molar mass of the structure shown.

Assays:
Solubility in water = format: physicochemical; conditions: hydrochlorides or oxalates, read-out: solubilities (in water)
Description: The following list contains examples of those compounds which are made according to the methods disclosed. (The individual compounds are identified by elementary analyses and infrared spectra, by ultra-violet or nuclear resonance spectra, if necessary.) Individual melting points and solubilities (in water) are also given as is the method by which each compound is prepared.
The melting points and solubilities are given for the Hydrochlorides I - XVI; XVIII - XXVII; XXIX - XXXV; XXXVII - XLII; XLIV - LXII; LXIV - LXVII, and the Oxalates XVII; […]; XXXVI; LXIII.

A. niger [1] = experiment: Minimum inhibitory concentration for fungi in presence of serum, A. niger (Table VI); format: cell-based; conditions: Aspergillus niger; Sabouraud nutrient broth + 10% bovine serum, 28°C, 48 hours
C. albicans [2] = experiment: Minimum inhibitory concentration for fungi, tube dilution, C. albicans (Table IV); conditions: Candida albicans, 48 h, read-out: Minimum Inhibitory Concentration, C. albicans
Description: (§1) A tube dilution series of the respective compound in Sabouraud nutrient broth, whose individual tubes contained concentrations of 1024 μg, 512 μg, 256 μg, 128 μg, 64 μg, 32 μg, 16 μg, 8 μg, 4 μg, 2 μg, 1.1 μg and 0.5 μg/ml, was prepared and inoculated with a photometrically standardized suspension of the test organisms or the spores thereof.

A. niger [3] = experiment: Minimum inhibitory concentration for fungi, tube dilution, A. niger (Table IV); conditions: Aspergillus niger, 48 h, read-out: Minimum Inhibitory Concentration, A. niger
Description: as §1

Staphylococcus aureus = experiment: Agar well inhibition zone test against bacteria, Staphylococcus aureus (Table III); conditions: quantity per well giving inhibition zone (500, 50, 5 μg tested); nutrient agar, 37°, 24 hours
Description: (§2) The efficacy of the compounds against bacteria was tested as follows:
(§3) The test organisms, in this case Staphylococcus aureus and Escherichia coli, were inoculated on nutrient agar as described in Example 12, wells were punched, and the solutions of the compounds were transferred to fill the wells. The quantity of compound in the wells amounted again to 500 μg, 50 μg and 5 μg.
(§4) After incubation a 37° for 24 hours the quantity of compound was determined at which an inhibition of the organism's growth, in the form of an inhibition zone around the corresponding well, occurred.

Candida albicans = experiment: Agar well inhibition zone test against fungi, Candida albicans (Table II); conditions: quantity per well giving inhibition zone (500, 50, 5 μg tested); Sabouraud agar, 28°, 48 hours
Aspergillus niger = experiment: Agar well inhibition zone test against fungi, Aspergillus niger (Table II); conditions: quantity per well giving inhibition zone (500, 50, 5 μg tested); Sabouraud agar, 28°, 48 hours
Escherichia coli = experiment: Agar well inhibition zone test against bacteria, Escherichia coli (Table III); conditions: quantity per well giving inhibition zone (500, 50, 5 μg tested); nutrient agar, 37°, 24 hours
Description: as §2, §3, §4

Staph. aureus = experiment: Minimum inhibitory concentration for bacteria, tube dilution, Staph. aureus (Table V); conditions: Staphylococcus aureus, 48 h, read-out: Minimum Inhibitory Concentration, Staph. aureus
Description: A tube dilution series of the respective compound in nutrient broth whose individual tubes contained concentrations of 1024 μg, 512 μg, 256 μg, 128 μg, 64 μg, 32 μg, 1 μg, 8 μg, 4 μg, 2 μg, 1.1 μg and 0.5 μg/ml was prepared and inoculated with a photometrically standardized suspension of the test organisms.

[4] = test system: Mycobacterium tuberculosis II 37 RV (typus humanus); experiment: Efficacy against Mycobacteria, Tb-broth dilution series (Table I); format: cell-based; conditions: 504 h, Dubos Tb-broth + 10% bovine serum, 21 days, read-out: Minimum Inhibitory Concentration
C. albicans [5] = experiment: Minimum inhibitory concentration for fungi in presence of serum, C. albicans (Table VI); format: cell-based; conditions: Candida albicans; Sabouraud nutrient broth + 10% bovine serum, 28°C, 48 hours

Compound	solubility (Solubility in water) [mg/mL]	MIC (A. niger [1]) [µg/mL]	MIC (C. albicans [2]) [µg/mL]	MIC (A. niger [3]) [µg/mL]	Inhibition Area at μg, Staph. aureus (Staphylococcus aureus) [µg]	Inhibition Area at μg, Cand. albicans (Candida albicans) [µg]	Inhibition Area at μg, Asp. niger (Aspergillus niger) [µg]	Inhibition Area at μg, E. coli (Escherichia coli) [µg]	MIC (Staph. aureus) [µg/mL]	MIC [4] [µg/mL]	MIC (C. albicans [5]) [µg/mL]
CC(N1CCN(CCN2CCCC2)CC1)C(O)(Cc1ccccc1)Cc1ccccc1 (stereo not drawn) [III, 1-phenyl-2-benzyl-3-[4'-(β-pyrrolidino-ethyl)-piperazino-1']-butanol-2]	50 (≈ 119000 µM)	128	32 (≈ 75.9 µM)	64 (≈ 152 µM)	50	50	50	500	512 (≈ 1210 µM)	50	64
Cc1cccc(CC(O)(Cc2cccc(C)c2)C(C)N2CCN(C)CC2)c1 (stereo not drawn) [IL, 1-m-tolyl-2-(m-methyl-benzyl)-3-(4'-methyl-piperazino-1')-butanol-2]	50 (≈ 136000 µM)	128	32 (≈ 87.3 µM)	32 (≈ 87.3 µM)	50	50	50	500	128 (≈ 349 µM)	100	256
CC(N1CCN(CCN2CCCCC2)CC1)C(O)(Cc1ccccc1)Cc1ccccc1 (stereo not drawn) [IV, 1-phenyl-2-benzyl-3-[4'-(β-piperidino-ethyl)-piperazino-1']-butanol-2]	50 (≈ 115000 µM)	–	32 (≈ 73.5 µM)	–	500	50	500	> 500	–	100	32
CC1CCN(CCN2CCN(C(C)C(O)(Cc3ccccc3)Cc3ccccc3)CC2)CC1 (stereo not drawn) [IX, 1-phenyl-2-benzyl-3-{4'-[β-(4"-methyl-piperidino)-ethyl]-piperazino-1'}-butanol-2]	50 (≈ 111000 µM)	–	16 (≈ 35.6 µM)	128 (≈ 285 µM)	500	50	50	500	–	100	32
CC(N1CCNCC1)C(O)(Cc1ccccc1)Cc1ccccc1 (stereo not drawn) [L, 1-phenyl-2-benzyl-3-piperazino-butanol-2]	10 (≈ 30800 µM)	–	–	–	500	50	50	500	–	500	512
CCC(N1CCN(C)CC1)C(O)(Cc1ccccc1)Cc1ccccc1 (stereo not drawn) [LVIII, 1-phenyl-2-benzyl-3-(4'-methyl-piperazino-1')-pentanol-2]	< 10	–	256 (≈ 726 µM)	128 (≈ 363 µM)	50	50	50	500	256 (≈ 726 µM)	100	–
CC(N1CCN(CCN2CCOCC2)CC1)C(O)(Cc1ccccc1)Cc1ccccc1 (stereo not drawn) [V, 1-phenyl-2-benzyl-3-[4'-(β-morpholino-ethyl)-piperazino-1']-butanol-2]	50 (≈ 114000 µM)	256	> 1020	64 (≈ 146 µM)	50	50	50	500	512 (≈ 1170 µM)	100	–
CC1CCCCN1CCN1CCN(C(C)C(O)(Cc2ccccc2)Cc2ccccc2)CC1 (stereo not drawn) [VII, 1-phenyl-2-benzyl-3-{4'-[β-(2"-methyl-piperidino)-ethyl]-piperazino-1'}-butanol-2]	50 (≈ 111000 µM)	–	32 (≈ 71.2 µM)	–	500	50	500	> 500	–	10	32
CC1CCCN(CCN2CCN(C(C)C(O)(Cc3ccccc3)Cc3ccccc3)CC2)C1 (stereo not drawn) [VIII, 1-phenyl-2-benzyl-3-{4'-[β-(3"-methyl-piperidino)-ethyl]-piperazino-1'}butanol-2]	50 (≈ 111000 µM)	–	16 (≈ 35.6 µM)	–	50	50	500	> 500	512 (≈ 1140 µM)	100	16
CC(N1CCN(CCN2CCN(Cc3ccccc3)CC2)CC1)C(O)(Cc1ccccc1)Cc1ccccc1 (stereo not drawn) [XII, 1-phenyl-2-benzyl-3-{4'-[β-(4"-benzyl-piperazino-1")-ethyl]-piperazino-1'}-butanol-2]	100 (≈ 190000 µM)	> 1020	64 (≈ 121 µM)	16 (≈ 30.4 µM)	50	5	50	500	64 (≈ 121 µM)	100	256
CC(N1CCN(CCCN2CCCCC2)CC1)C(O)(Cc1ccccc1)Cc1ccccc1 (stereo not drawn) [XIX, 1-phenyl-2-benzyl-3-[4'-(γ-piperidinopropyl)-piperazino-1']-butanol-2]	100 (≈ 222000 µM)	32	16 (≈ 35.6 µM)	32 (≈ 71.2 µM)	500	5	5	500	–	100	16
CC(N1CCN(Cc2ccccn2)CC1)C(O)(Cc1ccccc1)Cc1ccccc1 (stereo not drawn) [XXII, 1-phenyl-2-benzyl-3-[4'-(2"-pyridylmethyl)-piperazino-1']-butanol-2]	50 (≈ 120000 µM)	–	–	–	50	500	500	> 500	> 1020	500	512
CC(C(=Cc1ccccc1)Cc1ccccc1)N1CCN(CCN2CCCC2)CC1 (stereo not drawn) [XXIX, 1-phenyl-2-benzyl-3-[4'-(β-pyrrolidino-ethyl)-piperazino-1']-butene-1]	100 (≈ 248000 µM)	32	8 (≈ 19.8 µM)	16 (≈ 39.6 µM)	50	50	50	500	128 (≈ 317 µM)	10	128
CCN(CC)CCN1CCN(C(C)C(=Cc2ccccc2)Cc2ccccc2)CC1 (stereo not drawn) [XXVII, 1-phenyl-2-benzyl-3-[4'-(β-diethylamino-ethyl)-piperazino-1']-butene-1]	100 (≈ 247000 µM)	–	256 (≈ 631 µM)	128 (≈ 316 µM)	50	5	5	500	256 (≈ 631 µM)	10	–
CC(C(=Cc1ccccc1)Cc1ccccc1)N1CCN(CCN2CCCCC2)CC1 (stereo not drawn) [XXX, 1-phenyl-2-benzyl-3-[4'-(β-piperidino-ethyl)-piperazino-1']-butene-1]	10 (≈ 23900 µM)	32	16 (≈ 38.3 µM)	32 (≈ 76.6 µM)	50	50	5	500	128 (≈ 306 µM)	50	256
CC1CN(CCN2CCN(C(C)C(=Cc3ccccc3)Cc3ccccc3)CC2)CCO1 (stereo not drawn) [XXXII, 1-phenyl-2-benzyl-3-{4'-[β-(2-methylmorpholino)-ethyl]-piperazino-1'}-butene-1]	100 (≈ 231000 µM)	–	–	128 (≈ 295 µM)	50	500	50	> 500	128 (≈ 295 µM)	50	–
CC1CCCCN1CCN1CCN(C(C)C(=Cc2ccccc2)Cc2ccccc2)CC1 (stereo not drawn) [XXXIII, 1-phenyl-2-benzyl-3-[4'-(β-2"-methyl-piperidinoethyl)-piperazino-1']-butene-1]	100 (≈ 232000 µM)	–	256 (≈ 593 µM)	256 (≈ 593 µM)	50	5	50	500	128 (≈ 297 µM)	20	–
